According to patent publication US11433143B2, “Nano-enabled immunotherapy in cancer” (The Regents of the University of California, priority 2017, dated 2022):

What was measured:
[1] = system: KPC tumor; experiment: Vaccination with drug-treated dying KPC cells, live KPC challenge on contralateral side; type: in vivo, mouse; settings: for KPC tumor growth in the contralateral flank (spaghetti curves) / KPC tumor size on the contralateral side: 2 rounds of vaccination one week apart; for KPC tumor size on the contralateral side: tumors collected on day 26
Experimental: FIG. 6. […] DACHPt, 500 μM) for 24 h. HMBG1 release was measured using ELISA. Panel B) Animal experimentation using 2 rounds of vaccination one week apart, followed by injecting live KPC cells SC on the contralateral side. The details of the animal vaccination experiment are provided in the methods section. Tumors were collected on day 26 for size measurement and IHC analysis. Panel C) Tumor size measurement on the contralateral side. Panel D) Explanted tumor at the contralateral side. Panel E) Spaghetti curves to show KPC tumor growth in the contralateral flank. Panel F) Tumor collection was performed after euthanizing the animal to conduct IHC.
Animal experiments were performed using two rounds of vaccination one week apart, followed by injecting live KPC cells SC on the contralateral side (FIG. 6, panel B). Tumors were collected on day 26 for size measurement and IHC analysis.
Tumor collection was performed after euthanizing the animals to conduct IHC. IHC staining of CD8 and Foxp3 T cells was used to calculate CD8/FoxP3 T cell ratio in each group (see, e.g., FIG. 6, panel F).

[2] = system: 4T1 cells; experiment: ICD screening of chemo agents in 4T1 cells (CRT expression, HMGB1 release); type: cell-based, mouse; settings: multi-parameter cellular screening
Description: One possible approach is to use chemotherapy to induce immunogenic cell death or ICD.

[3] = system: KPC pancreatic cancer cells; experiment: Induction of ICD marker CRT (flow cytometry) and HMGB1 release (ELISA) in cultured KPC pancreatic cancer cells; type: cell-based, mouse; settings: 24 h; for induction of the ICD marker CRT: DOX 20 μM, OX 500 μM, activated DOX (DACHPt) 500 μM, flow cytometry; for HMGB1 release: ELISA
Experimental: FIG. 6. Panel A) Flow cytometry experiment showing the induction of the ICD marker, CRT, in cultured KPC pancreatic cancer cells in the presence of PBS, DOX (20 μM), OX (500 μM), and activated […] (a.k.a. DACHPt, 500 μM) for 24 h. HMBG1 release was measured using ELISA. Panel B) Animal experimentation using 2 rounds of vaccination one week apart, followed by injecting live KPC cells SC on the contralateral side. The details of the animal vaccination experiment are provided in the methods section. Tumors were collected on day 26 for size measurement and IHC analysis. Panel C) Tumor size measurement on the contralateral side. Panel D) Explanted tumor at the contralateral side. Panel E) Spaghetti curves to show KPC tumor growth in the contralateral flank. Panel F) Tumor collection was performed after euthanizing the animal to conduct IHC. IHC staining of CD8 and Foxp3 T cells was used to calculate CD8/FoxP3 T cells ratio in each group. *p<0.05; **p<0.01
ICD is a modified form of apoptosis that can be used to initiate an effective immune response against endogenous tumor antigens (Kroemer et al. (2013) Ann. Rev. Immunol., 31: 51-72).^1 Since this model was 1st proposed against the backdrop of a select number of cancer drugs (Id.), we focused on the use of OX, because it is FDA-approved for PDAC treatment. As a component of the FOLFIRINOX regimen (in combination with irinotecan, 5-FU and folinic acid). For comparison, we also included the anthracycline antibiotic, DOX, as a positive control and cisplatin (Cis) as a negative control for the screening of PDAC cell lines, using cell surface CRT expression (Obeid et al. (2017) Nat. Med., 13(1): 54-61; Casares et al. (2005) J. Exp. Med. 202(12): 1691-1701; Fucikova et al. (2011) Canc. Res. 71(14): 4821-4833; Tesniere et al. (2010) Oncogene, 29(4): 482-491; Galluzzi et al. (2012) Oncogene, 31(15): 1869-1883; Martins et al. (2011) Oncogene, 30(10): 1147-1158). CRT is an endoplasmic reticulum (ER) stress protein that translocates to the surface membrane of cancer cells undergoing ICD (Obeid et al. (2017) Nat. Med., 13(1): 54-61; Fucikova et al. (2011) Canc. Res. 71(14): 4821-4833). Screening for CRT expression was performed in murine KPC cells, derived from a spontaneous tumor that developed in a transgenic Kras^LSL-G12D/+/Trp53^LSL-R172H/+/Pdx-1-Cre (KPC) mouse (Hingorani et al. (2005) Cancer cell, 7(5): 469-483).
The KPC model recapitulates many of disease features of human PDAC, including oncogene expression, development of a robust cancer stroma, extensive local invasion and distant metastases (Tones et al. (2013) PloS one, 8(11): e80580; Tseng et al. (2010) Clin. Canc. Res. 16(14): 3684-3695). DOX and OX and activated DOX induced the ICD marker CRT in cultured KPC pancreatic cancer cells (FIG. 6, panel A). […]

[4] = system: mTOR signaling; experiment: Western blot of mTOR signaling (P-S6K phosphorylation) in 4T1 cells in tryptophan-deficient DMEM; type: cell-based, mouse; settings: 3 h, vs free IND
[5] = Determination of MTD doses in normal mice; settings: mouse, in vivo, single IV administration
Experimental: FIG. 26. Panel A) Determination of MTD doses for free MTX and liposomal MTX in normal mice. MTD doses for free MTX and liposomal MTX were 3 and 15 mg/kg for single IV administration. Due to the high MTD of liposomal MTX, we tested the efficacy of the MTX liposome at low dose (1 mg/Kg×3 times) and high dose (3 mg/Kg×3 times). Panel B) Pilot tumor size measurement in 4T1 orthotopic tumor-bearing mice (n=6) receiving IV free drug or MTX-only liposome. For free drug treatment, we have included 2 two schedules namely single IV at 3 mg/kg at Day 8 or IV injections at 1 mg/kg at Day 8, 11 and 14. Since MTX liposome has a 5× higher MTD dose, the tumor mice received single IV at 3 mg/kg at Day 8 or IV injections at Day 8, 11 and 14.

[6] = system: 4T1 cells; experiment: CRT induction by liposomes in 4T1 cells (flow cytometry)
Description: Panel B) All the particles were fully characterized abiotically and biotically.

[7] = cited from earlier work
[8] = PK characteristics of free IND; settings: in vivo
[9] = Solubility and log P; type: physicochemical

## COc1cccc2c1C(=O)c1c(O)c3c(c(O)c1C2=O)C[C@@](O)(C(=O)CO)C[C@@H]3O[C@H]1C[C@H](N)[C@H](O)[C@H](C)O1 [DOX, doxorubicin]
[1]
  KPC tumor growth in the contralateral flank (spaghetti curves): decrease
  KPC tumor size on the contralateral side: significant reduction
[2]
  ICD induction (calreticulin expression, release of HMGB1): can induce
[3]
  induction of the ICD marker CRT: induced
  HMGB1 release: increased

## 16:0 LysoPC-indoximod [IND-PL]
[4]
  effect on mTOR signaling (phosphorylation of P-S6K): enhanced effect

## N.N.[Cl][Pt][Cl] [cisplatin]
[2]
  ICD induction (calreticulin expression, release of HMGB1): failed to induce the same effect

## O=C1c2c(O)ccc(O)c2C(=O)c2c(NCCNCCO)ccc(NCCNCCO)c21 [MTX, mitoxantrone]
[2]
  ICD induction (calreticulin expression, release of HMGB1): can induce
[5]
  MTD: 3 mg/kg
[6]
  CRT induction / ICD response in 4T1 cells (FIG. 31 panel B): generation of an ICD response

## O=c1[nH]cc(F)c(=O)[nH]1 [5-FU, 5-fluorouracil]
[2]
  ICD induction (calreticulin expression, release of HMGB1): failed to induce the same effect

## NS(=O)(=O)NCCNc1nonc1C(=NO)Nc1ccc(F)c(Br)c1 [epacadostat]
[7]
  solubility in ethanol: > 20 mg/mL

## Cn1cc(C[C@@H](N)C(=O)O)c2ccccc21 [Free IND, 1-methyl-D-tryptophan]
[8]
  PK characteristics: unfavorable PK characteristics
[9]
  water solubility: relatively water insoluble

## CC(=O)O[C@H]1C(=O)[C@@]2(C)[C@H]([C@H](OC(=O)c3ccccc3)[C@]3(O)C[C@H](OC(=O)[C@H](O)[C@@H](NC(=O)c4ccccc4)c4ccccc4)C(C)=C1C3(C)C)[C@]1(OC(C)=O)CO[C@@H]1C[C@@H]2O [paclitaxel]
[2]
  ICD induction (calreticulin expression, release of HMGB1): ICD inducer

## O=C1[O][Pt]2([NH][C@@H]3CCCC[C@H]3[NH]2)[O]C1=O [OX, oxaliplatin]
[1]
  KPC tumor growth in the contralateral flank (spaghetti curves): decrease
  KPC tumor size on the contralateral side: significant reduction
[1]; local and systemic tumor sites
  CD8+/Foxp3+ ratio: capable of increasing
[3]
  induction of the ICD marker CRT: induced
  HMGB1 release: increased
